Test results published in patent US11207325B2, “Triazolopyrimidine compounds and uses thereof” (Novartis AG, priority 2014, dated 2021).

tested on: H3K27 methylation in G401 cell; assay: ELISA (H3K27 methylation) assay; assay type: cell-based; settings: Homo sapiens, G-401; ELISA Qualified assay (H3K27 methylation); read-out: (c) IC50 (μM), ELISA Qualified
Excerpt: ELISA (H3K27 Methylation) Assay

Compound | IC50
Fc1ccc2c(c1CNc1ncc(-c3ccc(N4CCOCC4)nc3)c3nncn13)CCO2 [Example 92, N-((5-fluoro-2,3-dihydrobenzofuran-4-yl)methyl)-8-(6-morpholinopyridin-3-yl)-[1,2,4]triazolo[4,3-c]pyrimidin-5-amine] | 0.0409 µM
COC(=O)N1CCN(c2ccc(-c3cnc(NCc4cccc5c4CCO5)n4cnnc34)cn2)CC1 [Example 97, methyl 4-(5-(5-(((2,3-dihydrobenzofuran-4-yl)methyl)amino)-[1,2,4]triazolo[4,3-c]pyrimidin-8-yl)pyridin-2-yl)piperazine-1-carboxylate] | 0.183 µM
CS(=O)(=O)CCCOc1cncc(-c2cnc(NCc3cccc4c3CCO4)n3cnnc23)c1 [Example 98, N-((2,3-dihydrobenzofuran-4-yl)methyl)-8-(5-(3-(methylsulfonyl)propoxy)pyridin-3-yl)-[1,2,4]triazolo[4,3-c]pyrimidin-5-amine] | 1.42 µM
CN(C)CCN(C)C(=O)c1ccc(-c2cnc(NCc3cccc4c3CCO4)n3cnnc23)cn1 [Example 102, 5-(5-(((2,3-dihydrobenzofuran-4-yl)methyl)amino)-[1,2,4]triazolo[4,3-c]pyrimidin-8-yl)-N-(2-(dimethylamino)ethyl)-N-methylpicolinamide] | 0.285 µM
O=C1CN(c2ccc(-c3cnc(NCc4cccc5c4CCO5)n4cnnc34)cn2)CCN1 [Example 104, 4-(5-(5-(((2,3-dihydrobenzofuran-4-yl)methyl)amino)-[1,2,4]triazolo[4,3-c]pyrimidin-8-yl)pyridin-2-yl)piperazin-2-one] | 2.33 µM
CS(=O)(=O)CCOc1cncc(-c2cnc(NCc3cccc4c3CCO4)n3cnnc23)c1 [Example 106, N-((2,3-dihydrobenzofuran-4-yl)methyl)-8-(5-(2-(methylsulfonyl)ethoxy)pyridin-3-yl)-[1,2,4]triazolo[4,3-c]pyrimidin-5-amine] | 2.7 µM
CC(=O)N1CCN(CCc2ccc(-c3cnc(NCc4cccc5c4CCO5)n4cnnc34)cn2)CC1 [Example 108, 1-(4-(2-(5-(5-(((2,3-dihydrobenzofuran-4-yl)methyl)amino)-[1,2,4]triazolo[4,3-c]pyrimidin-8-yl)pyridin-2-yl)ethyl)piperazin-1-yl)ethanone] | 0.173 µM
CNc1cc(F)c(-c2cnc(NCc3cccc4c3CCO4)n3cnnc23)cn1 [Example 111, N-((2,3-dihydrobenzofuran-4-yl)methyl)-8-(4-fluoro-6-(methylamino)pyridin-3-yl)-[1,2,4]triazolo[4,3-c]pyrimidin-5-amine] | 0.14 µM
CCNC(=O)c1ccc(-c2cnc(NCc3cccc4c3CCO4)n3cnnc23)cn1 [Example 114, 5-(5-(((2,3-dihydrobenzofuran-4-yl)methyl)amino)-[1,2,4]triazolo[4,3-c]pyrimidin-8-yl)-N-ethylpicolinamide] | 1.98 µM
Fc1ccc2c(c1CNc1ncc(-c3cccnc3F)c3nncn13)CCO2 [Example 115, N-((5-fluoro-2,3-dihydrobenzofuran-4-yl)methyl)-8-(2-fluoropyridin-3-yl)-[1,2,4]triazolo[4,3-c]pyrimidin-5-amine] | 0.0243 µM
Cc1cc(-c2cnc(NCc3c(F)ccc4c3CCO4)n3cnnc23)ccn1 [Example 116, N-((5-fluoro-2,3-dihydrobenzofuran-4-yl)methyl)-8-(2-methylpyridin-4-yl)-[1,2,4]triazolo[4,3-c]pyrimidin-5-amine] | 0.0072 µM
Fc1ccc2c(c1CNc1ncc(-c3ccc(C4CC4)nc3)c3nncn13)CCO2 [Example 119, 8-(6-cyclopropylpyridin-3-yl)-N-((5-fluoro-2,3-dihydrobenzofuran-4-yl)methyl)-[1,2,4]triazolo[4,3-c]pyrimidin-5-amine] | 0.0108 µM
Fc1ccc2c(c1CNc1ncc(-c3ccnc(N4CCOCC4)c3)c3nncn13)CCO2 [Example 120, N-((5-fluoro-2,3-dihydrobenzofuran-4-yl)methyl)-8-(2-morpholinopyridin-4-yl)-[1,2,4]triazolo[4,3-c]pyrimidin-5-amine] | 0.0721 µM
Cc1ncccc1-c1cnc(NCc2cccc3c2CCO3)n2cnnc12 [Example 123, N-((2,3-dihydrobenzofuran-4-yl)methyl)-8-(2-methylpyridin-3-yl)-[1,2,4]triazolo[4,3-c]pyrimidin-5-amine] | 0.0197 µM
Fc1ccc2c(c1CNc1ncc(-c3cnccc3Cl)c3nncn13)CCO2 [Example 124] | 0.006 µM

Continued, values first:

IC50 | Compound
0.675 µM | CC1(C)COC(c2cncc(-c3cnc(NCc4cccc5c4CCO5)n4cnnc34)c2)=N1 [Example 90, N-((2,3-dihydrobenzofuran-4-yl)methyl)-8-(5-(4,4-dimethyl-4,5-dihydrooxazol-2-yl)pyridin-3-yl)-[1,2,4]triazolo[4,3-c]pyrimidin-5-amine]
0.0225 µM | Fc1ccc2c(c1CNc1ncc(-c3ccc(N4CCSCC4)nc3)c3nncn13)CCO2 [Example 91, N-((5-fluoro-2,3-dihydrobenzofuran-4-yl)methyl)-8-(6-thiomorpholinopyridin-3-yl)-[1,2,4]triazolo[4,3-c]pyrimidin-5-amine]
0.0241 µM | N#Cc1ccc(-c2cnc(NCc3c(F)ccc4c3CCO4)n3cnnc23)cn1 [Example 93, 5-(5-(((5-fluoro-2,3-dihydrobenzofuran-4-yl)methyl)amino)-[1,2,4]triazolo[4,3-c]pyrimidin-8-yl)picolinonitrile]
0.0257 µM | Fc1ccccc1-c1cnc(NCc2c(F)ccc3c2CCO3)n2cnnc12 [Example 94, N-((5-fluoro-2,3-dihydrobenzofuran-4-yl)methyl)-8-(2-fluorophenyl)-[1,2,4]triazolo[4,3-c]pyrimidin-5-amine]
0.158 µM | CN(C)C(=O)c1ccc(-c2cnc(NCc3cccc4c3CCO4)n3cnnc23)cn1 [Example 95, 5-(5-(((2,3-dihydrobenzofuran-4-yl)methyl)amino)-[1,2,4]triazolo[4,3-c]pyrimidin-8-yl)-N,N-dimethylpicolinamide]
0.329 µM | CC1CCCN1c1ccc(-c2cnc(NCc3cccc4c3CCO4)n3cnnc23)cn1 (stereo not shown) [Example 96, N-((2,3-dihydrobenzofuran-4-yl)methyl)-8-(6-(2-methylpyrrolidin-1-yl)pyridin-3-yl)-[1,2,4]triazolo[4,3-c]pyrimidin-5-amine]
0.107 µM | CC(C)(O)c1ccc(-c2cnc(NCc3cccc4c3CCO4)n3cnnc23)cn1 [Example 99, 2-(5-(5-(((2,3-dihydrobenzofuran-4-yl)methyl)amino)-[1,2,4]triazolo[4,3-c]pyrimidin-8-yl)pyridin-2-yl)propan-2-ol]
0.181 µM | FC1(F)CCN(CCc2ccc(-c3cnc(NCc4cccc5c4CCO5)n4cnnc34)cn2)C1 [Example 100, 8-(6-(2-(3,3-difluoropyrrolidin-1-yl)ethyl)pyridin-3-yl)-N-((2,3-dihydrobenzofuran-4-yl)methyl)-[1,2,4]triazolo[4,3-c]pyrimidin-5-amine]
0.761 µM | CC1(C)COC(c2ccc(-c3cnc(NCc4cccc5c4CCO5)n4cnnc34)cn2)=N1 [Example 101, N-((2,3-dihydrobenzofuran-4-yl)methyl)-8-(6-(4,4-dimethyl-4,5-dihydrooxazol-2-yl)pyridin-3-yl)-[1,2,4]triazolo[4,3-c]pyrimidin-5-amine]
2.42 µM | Cc1cc(-c2cnc(NCc3cccc4c3CCO4)n3cnnc23)cnc1N1CCNC(=O)C1 [Example 105, 4-(5-(5-(((2,3-dihydrobenzofuran-4-yl)methyl)amino)-[1,2,4]triazolo[4,3-c]pyrimidin-8-yl)-3-methylpyridin-2-yl)piperazin-2-one]
0.161 µM | O=CN1CCN(CCc2ccc(-c3cnc(NCc4cccc5c4CCO5)n4cnnc34)cn2)CC1 [Example 107, 4-(2-(5-(5-(((2,3-dihydrobenzofuran-4-yl)methyl)amino)-[1,2,4]triazolo[4,3-c]pyrimidin-8-yl)pyridin-2-yl)ethyl)piperazine-1-carbaldehyde]
1.21 µM | O=C1CN(CCc2ccc(-c3cnc(NCc4cccc5c4CCO5)n4cnnc34)cn2)CCN1 [Example 109, 4-(2-(5-(5-(((2,3-dihydrobenzofuran-4-yl)methyl)amino)-[1,2,4]triazolo[4,3-c]pyrimidin-8-yl)pyridin-2-yl)ethyl)piperazin-2-one]
0.124 µM | OCCN1CCN(c2ccc(-c3cnc(NCc4cccc5c4CCO5)n4cnnc34)cn2)CC1 [Example 110, 2-(4-(5-(5-(((2,3-dihydrobenzofuran-4-yl)methyl)amino)-[1,2,4]triazolo[4,3-c]pyrimidin-8-yl)pyridin-2-yl)piperazin-1-yl)ethanol]
0.389 µM | CN(C)c1cc(F)c(-c2cnc(NCc3cccc4c3CCO4)n3cnnc23)cn1 [Example 112, N-((2,3-dihydrobenzofuran-4-yl)methyl)-8-(6-(dimethylamino)-4-fluoropyridin-3-yl)-[1,2,4]triazolo[4,3-c]pyrimidin-5-amine]
0.72 µM | O=CN1CCCN(c2ccc(-c3cnc(NCc4cccc5c4CCO5)n4cnnc34)cn2)CC1 [Example 113, 4-(5-(5-(((2,3-dihydrobenzofuran-4-yl)methyl)amino)-[1,2,4]triazolo[4,3-c]pyrimidin-8-yl)pyridin-2-yl)-1,4-diazepane-1-carbaldehyde]
0.48 µM | O=C1OCCN1c1ccc(-c2cnc(NCc3cccc4c3CCO4)n3cnnc23)cn1 [Example 117, 3-(5-(5-(((2,3-dihydrobenzofuran-4-yl)methyl)amino)-[1,2,4]triazolo[4,3-c]pyrimidin-8-yl)pyridin-2-yl)oxazolidin-2-one]
0.0177 µM | Cc1ccncc1-c1cnc(NCc2c(F)ccc3c2CCO3)n2cnnc12 [Example 118, N-((5-fluoro-2,3-dihydrobenzofuran-4-yl)methyl)-8-(4-methylpyridin-3-yl)-[1,2,4]triazolo[4,3-c]pyrimidin-5-amine]
0.0142 µM | N#Cc1ccccc1-c1cnc(NCc2c(F)ccc3c2CCO3)n2cnnc12 [Example 121, 2-(5-(((5-fluoro-2,3-dihydrobenzofuran-4-yl)methyl)amino)-[1,2,4]triazolo[4,3-c]pyrimidin-8-yl)-benzonitrile]
0.135 µM | NC(=O)c1ccccc1-c1cnc(NCc2c(F)ccc3c2CCO3)n2cnnc12 [Example 122, 2-(5-(((5-fluoro-2,3-dihydrobenzofuran-4-yl)methyl)amino)-[1,2,4]triazolo[4,3-c]pyrimidin-8-yl)benzamide]
